From paper PMC10482825 (Scientific Reports, 2023)

Legend:
V. parahaemolyticus = assay: Micro-broth dilution MIC / MBC; type: cell-based, Vibrio parahaemolyticus (ATCC, 17802); settings: 37 °C
Source text: (§1) The microbial strains used in this study were Bacillus subtilis (ATCC, 11774), Candida albicans (TIMM, 1768), Enterococcus faecalis (ATCC, 33186), Escherichia coli (ATCC, 11775), Klebsiella pneumoniae (ATCC, 13883), Methicillin-resistant Staphylococcus aureus (ATCC, BAA-41), Pseudomonas aeruginosa (ATCC, 10145), Salmonella enterica (ATCC, 14028), Serratia marcescens (ATCC, 13880), Staphylococcus aureus (ATCC, 25923) and Vibrio parahaemolyticus (ATCC, 17802). All microbial strains were cultivated overnight at 37 °C and 200 rpm, then subcultured and incubated for 3 h under the same incubation conditions to obtain the mid-logarithmic growth phase. The cultivated cells were washed twice with 10 mM Tris–HCl containing 5 mM D-glucose at pH 7.4 and suspended in the same buffer to be used in different assays, as previously described.
As a conclusive quantitative assessment, broth microtiter assay was used to determine the MIC values of each cryptide against B. subtilis, MRSA, S. enterica, P. aeruginosa, V. parahaemolyticus and C. albicans by following the guidelines of the Clinical and Laboratory Standards Institute (CLSI)[67], with slight modifications. […] MIC was detected as the lowest concentration of each cryptide that prevents the optically detectable microbial growth at OD = 600 nm.

C. albicans = assay: Radial diffusion assay; type: cell-based, Candida albicans (TIMM, 1768); settings: 5 µl of 500 µM per 3 mm well, 37 °C, mean ± SD
Source text: as §1
The antimicrobial activity spectra of the selected cryptides were screened against all the mentioned microbial pathogens, except V. parahaemolyticus, by radial diffusion assay as previously described, with slight modifications. […] The plates were then incubated for 18 h, and the antimicrobial activities were measured in the absolute unit (AU), as previously described. […]
plate. The plates were then incubated for 12 h at 37 °C and antimicrobial activities were measured in the term of absolute unit (A.U). […]

## RHCLRSKRPPNVCPH [AD4, cationic cryptide from P. vannamei precursor DN34505 (Pl-crustin 2), chemically synthesised]
V. parahaemolyticus; 20 µl of wells without growth on agar, 18 h
  MBC (µM) V. parahaemolyticus: > 50 µM
V. parahaemolyticus; micro-broth dilution, 3 h peptide treatment then MHB 18 h, OD 600 nm
  MIC (µM) V. parahaemolyticus: > 50 µM
C. albicans
  Antifungal activity (inhibition zone) C. albicans: 2.1 ± 0.5 A.U.
